# Assays:
# Nitric oxide synthase 1 [1] = target: T1, Nitric oxide synthase 1 (Homo sapiens, UniProt P29475)
# Description: Inhibition of recombinant human nNOS
# HepG2 = assay: cells; conditions: Homo sapiens, HepG2, 24 h
# Description: Cytotoxicity against human HepG2 cells assessed as reduction in cell viability measured after 24 hrs by MTT assay
# Acetylcholinesterase [2] = target: T2, Acetylcholinesterase (Homo sapiens, UniProt P22303)
# Description: Inhibition of recombinant human AChE using acetylthiocholine as substrate by DTNB-reagent based Ellman's method
# Cholinesterase = Cholinesterase (Homo sapiens, UniProt P06276)
# Description: Inhibition of recombinant human BuChE using butyrylthiocholine as substrate by Ellman's method
# Nitric oxide synthase 1 [3] = target: T1, Nitric oxide synthase 1; remark: listed apart in the source
# Description: Inhibition of recombinant human nNOS
# Acetylcholinesterase [4] = target: T2, Acetylcholinesterase; assay: Non competitive type inhibition of human AChE assessed as inhibition constant using varying levels of acetylthiocholine as substrate by double reciprocal Lineweaver-Burk plot analysis
# Chain of Cholinesterase (P06276 whole entry): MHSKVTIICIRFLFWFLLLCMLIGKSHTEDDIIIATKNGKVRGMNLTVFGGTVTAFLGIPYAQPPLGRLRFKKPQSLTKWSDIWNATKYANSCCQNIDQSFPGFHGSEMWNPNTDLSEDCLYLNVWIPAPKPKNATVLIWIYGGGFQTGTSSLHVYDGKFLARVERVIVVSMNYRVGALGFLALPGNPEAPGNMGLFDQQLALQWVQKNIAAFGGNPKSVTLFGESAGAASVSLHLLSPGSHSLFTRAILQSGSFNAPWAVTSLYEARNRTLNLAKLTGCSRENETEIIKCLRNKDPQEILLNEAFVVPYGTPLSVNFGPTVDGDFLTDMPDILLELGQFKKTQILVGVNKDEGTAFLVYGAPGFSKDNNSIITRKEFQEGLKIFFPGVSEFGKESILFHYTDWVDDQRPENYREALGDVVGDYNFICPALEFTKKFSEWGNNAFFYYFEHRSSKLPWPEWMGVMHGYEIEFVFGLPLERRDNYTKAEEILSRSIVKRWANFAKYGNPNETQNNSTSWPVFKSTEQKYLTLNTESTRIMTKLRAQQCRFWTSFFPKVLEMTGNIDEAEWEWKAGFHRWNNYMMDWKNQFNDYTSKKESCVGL
# T1 sequence (P29475 whole entry): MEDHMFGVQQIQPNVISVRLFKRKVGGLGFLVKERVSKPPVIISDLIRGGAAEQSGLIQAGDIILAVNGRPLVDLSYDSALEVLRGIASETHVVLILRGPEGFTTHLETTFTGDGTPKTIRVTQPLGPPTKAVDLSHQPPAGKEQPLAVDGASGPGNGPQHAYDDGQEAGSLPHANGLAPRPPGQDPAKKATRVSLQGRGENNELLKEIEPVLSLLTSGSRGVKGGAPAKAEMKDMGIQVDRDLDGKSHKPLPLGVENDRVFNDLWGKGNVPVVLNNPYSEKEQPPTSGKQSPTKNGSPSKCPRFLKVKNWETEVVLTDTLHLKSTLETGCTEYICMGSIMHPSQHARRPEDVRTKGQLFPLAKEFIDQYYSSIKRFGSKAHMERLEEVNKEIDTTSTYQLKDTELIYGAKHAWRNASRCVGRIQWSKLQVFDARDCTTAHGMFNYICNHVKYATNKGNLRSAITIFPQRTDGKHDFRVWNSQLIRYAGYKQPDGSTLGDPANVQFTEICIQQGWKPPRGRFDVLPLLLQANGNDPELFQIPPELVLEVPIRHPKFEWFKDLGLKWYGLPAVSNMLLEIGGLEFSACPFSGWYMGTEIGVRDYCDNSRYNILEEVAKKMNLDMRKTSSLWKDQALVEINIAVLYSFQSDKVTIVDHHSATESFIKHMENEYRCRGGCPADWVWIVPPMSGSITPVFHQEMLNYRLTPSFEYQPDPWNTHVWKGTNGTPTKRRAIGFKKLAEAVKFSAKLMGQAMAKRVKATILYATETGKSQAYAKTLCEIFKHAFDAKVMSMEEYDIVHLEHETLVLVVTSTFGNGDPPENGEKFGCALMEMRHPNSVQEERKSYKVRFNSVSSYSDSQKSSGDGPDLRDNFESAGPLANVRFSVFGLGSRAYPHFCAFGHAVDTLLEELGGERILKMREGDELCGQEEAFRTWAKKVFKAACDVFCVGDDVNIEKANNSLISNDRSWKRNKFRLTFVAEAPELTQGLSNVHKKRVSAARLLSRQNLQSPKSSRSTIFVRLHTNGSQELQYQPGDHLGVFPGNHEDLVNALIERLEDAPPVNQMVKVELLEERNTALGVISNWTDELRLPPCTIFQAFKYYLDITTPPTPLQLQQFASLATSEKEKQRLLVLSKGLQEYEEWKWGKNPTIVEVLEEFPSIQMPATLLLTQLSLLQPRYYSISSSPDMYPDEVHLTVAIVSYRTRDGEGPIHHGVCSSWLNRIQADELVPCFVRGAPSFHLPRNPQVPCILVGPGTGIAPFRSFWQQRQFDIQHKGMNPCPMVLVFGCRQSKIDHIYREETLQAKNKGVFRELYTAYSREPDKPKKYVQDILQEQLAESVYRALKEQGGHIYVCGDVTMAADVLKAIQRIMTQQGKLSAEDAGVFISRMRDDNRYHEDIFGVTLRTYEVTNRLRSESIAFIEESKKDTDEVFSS
# T2 sequence (P22303 whole entry): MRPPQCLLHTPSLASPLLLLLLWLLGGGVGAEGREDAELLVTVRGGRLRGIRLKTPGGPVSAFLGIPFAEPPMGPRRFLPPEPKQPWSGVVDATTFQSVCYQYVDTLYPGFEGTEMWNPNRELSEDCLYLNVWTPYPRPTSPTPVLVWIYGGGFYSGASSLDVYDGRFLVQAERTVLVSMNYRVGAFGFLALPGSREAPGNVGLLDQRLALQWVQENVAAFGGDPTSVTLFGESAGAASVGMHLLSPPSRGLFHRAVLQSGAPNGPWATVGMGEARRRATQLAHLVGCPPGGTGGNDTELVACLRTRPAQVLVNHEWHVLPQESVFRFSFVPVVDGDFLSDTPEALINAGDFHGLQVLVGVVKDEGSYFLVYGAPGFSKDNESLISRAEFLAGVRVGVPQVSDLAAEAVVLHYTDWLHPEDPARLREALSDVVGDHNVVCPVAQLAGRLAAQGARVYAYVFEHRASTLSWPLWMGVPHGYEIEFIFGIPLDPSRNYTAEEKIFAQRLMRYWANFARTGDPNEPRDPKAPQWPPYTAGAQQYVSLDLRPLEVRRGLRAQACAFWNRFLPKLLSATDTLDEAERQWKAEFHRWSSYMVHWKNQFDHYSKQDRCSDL
SMILES,IC50 (Nitric oxide synthase 1 [1]),IC50 (HepG2),IC50 (Acetylcholinesterase [2]),IC50 (Cholinesterase),IC50 (Nitric oxide synthase 1 [3]),Ki (Acetylcholinesterase [4])
COc1ccc2nc3c(c(N)c2c1)C1CC(C)=CC(C3)C1 (racemic),32 µM,14.9 µM,–,–,–,–
CC1=CC2Cc3nc4cc(Cl)ccc4c(NCCCCCCCNC(=O)[C@@H](N)Cc4c[nH]c5ccccc45)c3C(C1)C2 (some centres undefined),35 µM,12.3 µM,0.0121 µM,0.0845 µM,–,–
CC1=CC2Cc3nc4cc(Cl)ccc4c(N)c3C(C1)C2 (racemic),–,15.9 µM,–,–,–,–
Nc1c2c(nc3cc(Cl)ccc13)CCCC2,–,–,–,–,Not Active,–
COc1ccc2nc3c(c(N)c2c1)CCCC3,–,–,–,–,Not Active,–
CC1=CC2Cc3nc4cc(Cl)ccc4c(NCCCCCNC(=O)[C@@H](N)Cc4c[nH]c5ccccc45)c3C(C1)C2 (some centres undefined),24 µM,4.77 µM,0.0227 µM,0.0683 µM,–,–
CC1=CC2Cc3nc4cc(Cl)ccc4c(NCCCCCCNC(=O)[C@@H](N)Cc4c[nH]c5ccccc45)c3C(C1)C2 (some centres undefined),18.5 µM,5.63 µM,0.0117 µM,0.0457 µM,–,0.023 µM
N[C@@H](Cc1c[nH]c2ccccc12)C(=O)NCCCCCCNc1c2c(nc3cc(Cl)ccc13)CCCC2,26 µM,–,–,–,–,–

# Reference: ChEMBL document CHEMBL4819137, “Huprine Y - Tryptophan heterodimers with potential implication to Alzheimer's disease treatment” (Bioorg Med Chem Lett, 2021)
